Experimental findings from patent US7846937B2, “Cyclopropanecarboxylate esters of acyclovir” (Eli Lilly and Company, priority 2005, dated 2010) are described below.

This series in a line: Hydrolytic stability in buffered aqueous solutions (HPLC). Type of series: physicochemical. Conditions: 40° C., read-out: t1/2 (hr) at 40° C. (converted). As to the method: Hydrolytic stability of valacyclovir and 1-amino-cyclopropanecarboxylic acid 2-(2-amino-6-oxo-1,6-dihydro-purin-9-ylmethoxy)-ethyl ester trifluoroacetic acid salt
Test samples of valacyclovir and 1-amino-cyclopropanecarboxylic acid 2-(2-amino-6-oxo-1,6-dihydro-purin-9-ylmethoxy)-ethyl ester trifluoroacetic acid salt (Example 1) are dissolved in buffered solutions of known pH at a concentration of 100 mcg/mL. Compound samples are prepared in 0.1 N hydrochloric acid for pH 1 and phosphate based buffer for pH2, 4, 6, 8 and 10. Stability is conveniently assessed using a semi-automated HPLC technique. Compound samples are loaded onto an HPLC autosampler incubated at 40° C. Samples are repeatedly injected on the HPLC at specific time intervals. The peak area of the compound samples are monitored by UV detection.
The HPLC system consisted of an Agilent® 1100 autoinjector, pump, degasser and LV detector. A Waters® Atlantis dC-18 column (3 micron, 150×4.6 mm I.D.) is used to separate the degradation products from the compound sample. An isocratic reversed-phase system using ultraviolet detection is used to monitor the peak areas of the compound sample over a 24 hour period. The mobile phase composition is 5% acetonitrile and 95% water with 0.1% trifluoroacetic acid added to the mixture. The flow rate is 1.5 mL/min. The column temperature is 30 degrees Celsius and the injection volume was 10 μL. The UV detector is set at 256 nm and the run time was 9 minutes. Time points are analyzed every 2 hours for each buffer while being incubated at 40 degrees Celsius by the thermostat controlled autosampler.
The peak area of the compound sample is monitored over a 24 hour period at 2 hour intervals. The peak area of the compound sample is plotted versus time for each of the buffers tested. A first order calculation is used to determine the rate constant for each buffer based on the loss of peak area over time. The half-life, in hours, is calculated by dividing 0.693 by the rate constant (k). t1/2 (hr)=0.693/k.

[1] abbreviates: pH = 1, 0.1 N hydrochloric acid.
The mark [2] stands for this setting: pH = 10, phosphate based buffer.

Where two headings read alike, the source gives them in different places. A value given as a limit tells only on which side of the number the result lay.

Regarding `CC(C)[C@H](N)C(=O)OCCOCn1cnc2c(=O)[nH]c(N)nc21` [valacyclovir, 2(2-amino-1,6-didydro-6-oxo-9H(purin-9-yl)methoxy)ethyl L-valinate], the half-life at 100 mcg/mL by setting is: under setting [1], above 300 h; (pH = 2, phosphate based buffer) above 300 h; (pH = 4, phosphate based buffer) above 300 h; (pH = 6, phosphate based buffer) 69.7 h; (pH = 8, phosphate based buffer) 7.8 h; under setting [2], 6.8 h.
For the molecule `Nc1nc2c(ncn2COCCOC(=O)C2(N)CC2)c(=O)[nH]1.O=C(O)C(F)(F)F` [Example 1, 1-amino-cyclopropanecarboxylic acid 2-(2-amino-6-oxo-1,6-dihydro-purin-9-ylmethoxy)-ethyl ester trifluoroacetic acid salt], the half-life at 100 mcg/mL was above 300 h under setting [1]; above 300 h (pH = 2, phosphate based buffer); above 300 h (pH = 4, phosphate based buffer); above 300 h (pH = 6, phosphate based buffer); 90.1 h (pH = 8, phosphate based buffer); 23.8 h under setting [2].
